Patent US20260125374A1, “PI3K-ALPHA INHIBITORS AND METHODS OF MAKING AND USING THE SAME” (Relay Therapeutics, Inc., priority 2021, published 2026)

Test: Salt screening (XRPD, chiral purity of hits)
Assay type: physicochemical
Conditions: for Chiral purity of salt screening solid: slurry
Experimental: Based on the pKa of I-1 free form, 23 counter ions were selected as salt/cocrystal forming agents. Methanol, acetone and isopropyl acetate were used as screening solvents. 1.0 equivalent of selected counter ions/coformers was applied for salt screening. Slurry equilibration, slow evaporation and anti-solvent addition were used as crystallization methods. In total, about 70 screening experiments were conducted.
About 50 mg of I-1 Form A were added to a suitable amount of solvent and 1.0 equivalent of counter ions were added under stirring at 50° C. for 2 hours and then at 25° C. for at least 12 hours. MeOH, acetone and IPAc were used as screening solvents.
Obtained suspensions were taken out and centrifuged. Solids obtained were analyzed by XRPD and salt screening results were summarized in Table 5.1, Table 5.2, and Table 5.3.

[1] = 1.0 equiv. naphthalene-1,5-disulfonic acid, MeOH
[2] = 1.0 equiv. naphthalene-1,5-disulfonic acid, MeOH/water(9:1, v/v)
[3] = 1.0 equiv. naphthalene-1,5-disulfonic acid, MeOH, dried at 50° C. for 21 h
[4] = crystalline hits of salt screening, listed as I-1 Form A

In the case of `N#Cc1c(-c2cc(NC(=O)c3cc(F)cc(C(F)(F)F)c3)c3c(c2)C(=O)N[C@H]3c2cc(F)ccc2Cl)ccc2ncnn12` [Compound I-1, (R)-N-(3-(2-chloro-5-fluorophenyl)-6-(5-cyano-[1,2,4]triazolo[1,5-a]pyridin-6-yl)-1-oxoisoindolin-4-yl)-3-fluoro-5-(trifluoromethyl)benzamide], the “Salt screening result (slurry crystallization)” value (1.0 equiv. fumaric acid, Acetone) is reported as “− (physical mixtures (Free form, counter ions, or physical mixtures)”, the “Salt screening result (slurry crystallization)” value (1.0 equiv. fumaric acid, Isopropyl acetate) is reported as “− (physical mixtures (Free form, counter ions, or physical mixtures)” and the “Salt screening result (slurry crystallization)” value (1.0 equiv. fumaric acid, MeOH) is reported as “− (I-1 Form A) (Free form, counter ions, or physical mixtures)”. The “Salt screening result (slurry crystallization)” value (1.0 equiv. gentisic acid, Acetone) was “thin suspension”, the “Salt screening result (anti-solvent)” value (1.0 equiv. gentisic acid, Acetone/MTBE) was “−(I-1 Form B) (Free form, counter ions, or physical mixtures)” and the “Salt screening result (slurry crystallization)” value (1.0 equiv. gentisic acid, Isopropyl acetate) was “− (I-1 Form A) (Free form, counter ions, or physical mixtures)”. For the same molecule, the “Salt screening result (slurry crystallization)” value (1.0 equiv. gentisic acid, MeOH) was “− (I-1 Form A) (Free form, counter ions, or physical mixtures)”, the “Salt screening result (slurry crystallization)” value (1.0 equiv. isonicotinamide, Acetone) was “thin suspension” and the “Salt screening result (anti-solvent)” value (1.0 equiv. isonicotinamide, Acetone/MTBE) was “−(I-1 Form B) (Free form, counter ions, or physical mixtures)”. For the same molecule, the “Salt screening result (slurry crystallization)” value (1.0 equiv. isonicotinamide, Isopropyl acetate) was “− (physical mixtures (Free form, counter ions, or physical mixtures)”, the “Salt screening result (slurry crystallization)” value (1.0 equiv. isonicotinamide, MeOH) was “− (I-1 Form A) (Free form, counter ions, or physical mixtures)” and the “Salt screening result (slurry crystallization)” value (1.0 equiv. maleic acid, Acetone) was “thin suspension”. For the same molecule, the “Salt screening result (anti-solvent)” value (1.0 equiv. maleic acid, Acetone/MTBE) was “−(I-1 Form B) (Free form, counter ions, or physical mixtures)”, the “Salt screening result (slurry crystallization)” value (1.0 equiv. maleic acid, Isopropyl acetate) was “− (I-1 Form A) (Free form, counter ions, or physical mixtures)” and the “Salt screening result (slurry crystallization)” value (1.0 equiv. maleic acid, MeOH) was “− (I-1 Form A) (Free form, counter ions, or physical mixtures)”. For the same molecule, the “Salt screening result (slurry crystallization)” value (1.0 equiv. malonic acid, Acetone) was “thin suspension”, the “Salt screening result (anti-solvent)” value (1.0 equiv. malonic acid, Acetone/MTBE) was “−(I-1 Form B) (Free form, counter ions, or physical mixtures)” and the “Salt screening result (slurry crystallization)” value (1.0 equiv. malonic acid, Isopropyl acetate) was “− (I-1 Form A) (Free form, counter ions, or physical mixtures)”. For the same molecule, the “Salt screening result (slurry crystallization)” value (1.0 equiv. malonic acid, MeOH) was “− (I-1 Form A) (Free form, counter ions, or physical mixtures)”, the “Salt screening result (slurry crystallization)” value (1.0 equiv. methanesulfonic acid, Acetone) was “thin suspension” and the “Salt screening result (anti-solvent)” value (1.0 equiv. methanesulfonic acid, IPAc/MTBE) was “thin suspension”. The “Salt screening result (slurry crystallization)” value (1.0 equiv. methanesulfonic acid, Isopropyl acetate) was “thin suspension”, the “Salt screening result (slurry crystallization)” value (1.0 equiv. naphthalene-1,5-disulfonic acid, Acetone) was “thin suspension” and the “Salt screening result (slurry crystallization)” value (1.0 equiv. naphthalene-1,5-disulfonic acid, Isopropyl acetate, 3 days) was 3 days: AF;. For the same molecule, the “Salt screening result (slurry crystallization)” value (1.0 equiv. naphthalene-1,5-disulfonic acid, Isopropyl acetate, for another 3 days) was 3 days: AF, the “Salt screening result (slurry crystallization)” value [1] was “+ (I-1 Form A ) (Salt hits)” and the “Salt screening result (slurry crystallization)” value [2] was “− (physical mixtures of (Free form, counter ions, or physical mixtures)”. The “Crystallinity of salt screening solid” value [3] was “low crystallinity”, the “Salt screening result (slurry crystallization)” value (1.0 equiv. naphthalene-2-sulfonic acid, Isopropyl acetate) was “thin suspension” and the “Salt screening result (slurry crystallization)” value (1.0 equiv. nicotinamide, Acetone) was “thin suspension”. For the same molecule, the “Salt screening result (anti-solvent)” value (1.0 equiv. nicotinamide, Acetone/MTBE) was “−(I-1 Form B) (Free form, counter ions, or physical mixtures)”, the “Salt screening result (slurry crystallization)” value (1.0 equiv. nicotinamide, Isopropyl acetate) was “− (physical mixtures (Free form, counter ions, or physical mixtures)” and the “Salt screening result (slurry crystallization)” value (1.0 equiv. nicotinamide, MeOH) was “− (I-1 Form A (Free form, counter ions, or physical mixtures)”. For the same molecule, the “Salt screening result (slurry crystallization)” value (1.0 equiv. nicotinic acid, Acetone) was “− (physical mixtures (Free form, counter ions, or physical mixtures)”, the “Salt screening result (slurry crystallization)” value (1.0 equiv. nicotinic acid, Isopropyl acetate) was “− (physical mixtures (Free form, counter ions, or physical mixtures)” and the “Salt screening result (slurry crystallization)” value (1.0 equiv. nicotinic acid, MeOH) was “− (physical mixtures (Free form, counter ions, or physical mixtures)”. The “Salt screening result (slurry crystallization)” value (1.0 equiv. phosphoric acid, Acetone) was “thin suspension”, the “Salt screening result (anti-solvent)” value (1.0 equiv. phosphoric acid, Acetone/MTBE) was “−(I-1 Form B) (Free form, counter ions, or physical mixtures)” and the “Salt screening result (slurry crystallization)” value (1.0 equiv. phosphoric acid, Isopropyl acetate) was “− (I-1 Form A) (Free form, counter ions, or physical mixtures)”. The “Salt screening result (slurry crystallization)” value (1.0 equiv. phosphoric acid, MeOH) was “− (I-1 Form A) (Free form, counter ions, or physical mixtures)”, the “Salt screening result (slurry crystallization)” value (1.0 equiv. sodium hydroxide, Acetone) was “thin suspension” and the “Salt screening result (slurry crystallization)” value (1.0 equiv. sodium hydroxide, Isopropyl acetate, for another 3 days) was “another 3 days: AF”. For the same molecule, the “Salt screening result (slurry crystallization)” value (1.0 equiv. sodium hydroxide, MeOH) was “clear solution”, the “Salt screening result (slurry crystallization)” value (1.0 equiv. sulfuric acid, Acetone) was “thin suspension” and the “Salt screening result (anti-solvent)” value (1.0 equiv. sulfuric acid, Acetone/MTBE) was “thin suspension”. The “Salt screening result (slurry crystallization)” value (1.0 equiv. sulfuric acid, Isopropyl acetate) was “thin suspension”, the “Salt screening result (slurry crystallization)” value (1.0 equiv. sulfuric acid, MeOH) was “− (I-1 Form A) (Free form, counter ions, or physical mixtures)” and the “Salt screening result (slurry crystallization)” value (1.0 equiv. theobromine, Acetone) was “− (physical mixtures (Free form, counter ions, or physical mixtures)”. The “Salt screening result (slurry crystallization)” value (1.0 equiv. theobromine, Isopropyl acetate) was “− (physical mixtures (Free form, counter ions, or physical mixtures)”, the “Salt screening result (slurry crystallization)” value (1.0 equiv. theobromine, MeOH) was “− (physical mixtures (Free form, counter ions, or physical mixtures)” and the “Salt screening result (slurry crystallization)” value (1.0 equiv. theophylline, Acetone) was “− (physical mixtures (Free form, counter ions, or physical mixtures)”. The “Salt screening result (slurry crystallization)” value (1.0 equiv. theophylline, Isopropyl acetate) was “− (physical mixtures (Free form, counter ions, or physical mixtures)”, the “Salt screening result (slurry crystallization)” value (1.0 equiv. theophylline, MeOH) was “− (physical mixtures (Free form, counter ions, or physical mixtures)” and the “Salt screening result (slurry crystallization)” value (Free form, Acetone) was “− (I-1 Form A) (Free form, counter ions, or physical mixtures)”. The “Salt screening result (slurry crystallization)” value (Free form, Isopropyl acetate) was “− (I-1 Form A) (Free form, counter ions, or physical mixtures)”, the “Salt screening result (slurry crystallization)” value (Free form, MeOH) was “− (I-1 Form A) (Free form, counter ions, or physical mixtures)” and the “Chiral purity (by HPLC)” value [4] was 99.2%. The “Crystallinity (By XRPD)” value [4] was “High”, the “Chiral purity of salt screening solid” value [1] was “Chiral purity: 100%” and the “Chiral purity of salt screening solid” value [2] was “Chiral purity: 99.3%”. The “Chiral purity of salt screening solid” value [3] was “Chiral purity: 100%”.
